# Measurements: patent US20130281526A1, “METHOD FOR TREATING IRRITABLE BOWEL SYNDROME WITH DIARRHEA” (SUCAMPO AG, priority 2012, published 2013)
# Tests used:
# [1] = tested on: patients with irritable bowel syndrome with diarrhea; experiment: Weekly responder rate for relief of IBS symptoms (7-point balanced scale) in patients; format: in vivo, human; conditions: 16 mcg per day, responder = moderately or significantly relieved
# Excerpt: The patients who had 25% or more loose or very loose stools during the baseline were enrolled as a patient with irritable bowel syndrome with diarrhea. The patients received placebo or lubiprostone 16 mcg per day.
# [2] = tested on: patients with irritable bowel syndrome with diarrhea; experiment: Subject symptom assessments, change from baseline after 12 weeks treatment; format: in vivo, human; conditions: 16 mcg per day for 12 weeks
# Protocol: The patients with irritable bowel syndrome with diarrhea defined in Example 1 received luboiprostone 16 mcg per day for 12 weeks.
# The assessments were conducted by the following criterias.
# Subject Evaluation of Abdominal Bloating: 0=Absent, 1=Mild, 2=Moderate, 3=Severe, and 4=Very Severe Subject Evaluation of Abdominal. Discomfort/Pain: 0=Absent, 1=Mild, 2=Moderate, 3=Severe, and 4=Very Severe Subject Evaluation of Constipation Severity: 0= Absent, 1=Mild, 2=Moderate, 3=Severe, and 4=Very Severe BM Frequency=(7×Number of BMs)/(Number of days) Subject Evaluation of Bowel Straining: 0=Absent, 1=Mild, 2=Moderate, 3=Severe, and 4=Very Severe
compound,measurement,setting,value
"CCCCC(F)(F)[C@@]1(O)CC[C@H]2[C@@H](CC(=O)[C@@H]2CCCCCCC(=O)O)O1 [lubiprostone, (−)-7-[(2R, 4aR, 5R, 7aR)-2-(1,1-difluoropentyl)-2-hydroxy-6-oxooctahydrocyclopenta[b]pyran-5-yl]heptancoic acid]",Weekly Responder Rate,[1]; Week 2,33.8%
same,Weekly Responder Rate,[1]; Week 3,34.9%
same,Weekly Responder Rate,[1]; Week 4,34.7%
same,"BM Frequency, change from the baseline after the treatment","[2]; BM Frequency=(7×Number of BMs)/(Number of days), baseline 3.64",0.36
same,"Abdominal Discomfort/Pain, change from the baseline after the treatment","[2]; score 0=Absent to 4=Very Severe, baseline 2.80",−1.08
same,"Constipation Severity, change from the baseline after the treatment","[2]; score 0=Absent to 4=Very Severe, baseline 3.16",−1.31
same,"Abdominal Bloating, change from the baseline after the treatment","[2]; score 0=Absent to 4=Very Severe, baseline 3.28",−1.37
same,"Bowel Straining, change from the baseline after the treatment","[2]; score 0=Absent to 4=Very Severe, baseline 4.00",−2.00
